Test results reported in patent US20260146102A1, “METHODS FOR MODULATING REGULATORY T CELLS” (Universite de Lausanne, priority 2018, published 2026).

Key:
[1] = tested on: YUMM1.7 melanoma; test: YUMM1.7 melanoma-engrafted mice treated with PPARβ selective agonist; format: in vivo
Description: Tumor engraftment and treatment of tumor-bearing mice. For tumor induction, 3-week-old Braf/Pten mice were treated with 4-hydroxytamoxifen on the skin surface as described before to induce tumor formation (Ho, P. C. et al. Cancer Res 74, 3205-3217 (2014)). For tumor engraftment, 5×10^4 cells YUMM1.7, B 16-OVA, or one million MC38 tumor cells were injected subcutaneously in 50 μl PBS. Tumors were measured every 2-3 days post tumor engraftment or indicated treatments and calculated. Tumor volume was calculated by volume=(length×width^2 )/2 for engrafted tumor or volume=(length×width×height) for inducible tumor. For in vivo treatment, Yumm 1.7-bearing mice were administrated every 3 days with either DMSO or PPARβ agonist (GW 501516) (1 mg per kg of body weight, Cayman Chemical) by intraperitoneal injection. For antibody-based treatment, tumor-bearing mice were treated with anti-PD-1 antibody (200 μg per injection, BioXcell, clone 29F.1A12) and anti-CD36 antibody (200 μg per injection, clone CRF D-2712 (Driscoll, W. S., et al. Circulation research 113, 52-61 (2013)) according to indicated combination by intraperitoneal injection. For antibody treatment in the Braf/Pten mouse model, four weeks after tumor induction, tumor-bearing Braf/Pten mice were treated with anti-CD36 antibody and/or anti-PD-1 antibody as indicated above for a period of 10 days. All experiments were conducted according to Swiss federal regulations.
Tumor digestion and cell isolation. Tumors were minced into small pieces in RPMI containing 2% FBS, 1% penicillin-streptomycin (p/s), DNase I (1 μg/ml, Sigma-Aldrich), and collagenase (0.5 mg/ml, Sigma-Aldrich) and kept for digestion for 40 min at 37° C., followed by the filtration with a 70 μm cell strainer. Filtered cells were incubated with ACK lysis buffer (Invitrogen) to lyse red blood cells and then washed with fluorescent activated cell sorter (FACS) buffer (phosphate-buffered saline with 2% fetal bovine serum and 2 mM EDTA). Tumor-infiltrating leukocytes were further enriched by percoll density gradient centrifugation (800×g, 30 min) at room temperature as described before (Cheng, W. C. et al. Nat Immunol 20, 206-217 (2019)).
Flow cytometry, cell sorting, and antibodies. Single cell suspensions were incubated with Fc receptor-blocking anti-CD16/32 (93) and anti-CD351 (TX61) antibodies (Biolegend) on ice for 10 min before staining. Cell suspensions were first stained with LIVE/DEAD® Fixable Violet Dead Cell Stain Kit (ThermoFisher) at 37° C. for 10 min. After washing, surface proteins were stained for 30 min at 4° C. […] Samples were analyzed on LSRII flow cytometers (BD Biosciences) and data were analyzed with FlowJo. […]

[2] = tested on: CD36-deficient Tregs; test: NAD/NADH measurement in CD36-deficient iTregs cultured in cancer cell-conditioned medium; format: cell-based, mice; conditions: 48 h, vs DMSO
Description: Cancer cell-conditioned medium and iTreg culture. iTregs were generated by activating naïve CD4^+ T cells with Dynabeads conjugated with anti-CD3 and anti-CD28 mAbs (ThermoFisher) in RMPI media supplemented with 10% FBS, 10 ng/ml TGFβ and 50 U/ml IL-2 for three days. Then activated CD 4^+ T cells were maintained in RPMI media plus 10% FBS and 50 U/ml IL-2 for another 2 days. Differentiated iTregs were firstly sorted by using FACS cell sorter and then incubated in indicated culture condition for 48 h. The survival and NAD/NADH levels of iTregs were then determined by live/dead staining and ELISA kits, respectively. For NAD/NADH measurement in CD36-KO iTregs treated with PPARβ agonist, sorted iTregs were cultured in cancer cell-conditioned medium in the presence of DMSO or GW50156 for 48 h. […]
NAD and NADH measurement. The ratio of nicotinamide adenine dinucleotide (NAD) and nicotinamide adenine dinucleotide […] (NADH) was measured by using the commercial NAD/NADH Quantification Kit (Sigma-Aldrich MAK037). […]
decomposition. The samples were then transferred to a 96 wells plate for measuring the absorbance of 450 nm. […] The ratio of NAD/NADH in a sample could be determined by the following equation: ratio=(NADtotal−NADH)/NADH.

[3] = tested on: CD36-deficient Tregs; test: Viability of iTregs in cancer cell-conditioned medium with or without NR; format: cell-based, mice; conditions: NR 400 μM, 72 hrs (FIG. 3i)
Description: Cancer cell-conditioned medium and iTreg culture. iTregs were generated by activating naïve CD4^+ T cells with Dynabeads conjugated with anti-CD3 and anti-CD28 mAbs (ThermoFisher) in RMPI media supplemented with 10% FBS, 10 ng/ml TGFβ and 50 U/ml IL-2 for three days. Then activated CD 4^+ T cells were maintained in RPMI media plus 10% FBS and 50 U/ml IL-2 for another 2 days. […] The survival and NAD/NADH levels of iTregs were then determined by live/dead staining and ELISA kits, respectively. For NAD/NADH measurement in CD36-KO iTregs treated with PPARβ agonist, sorted iTregs were cultured in cancer cell-conditioned medium in the presence of DMSO or GW50156 for 48 h. Control RPMI for iTreg in vitro treatment was prepared with RPMI 1640 medium (Biological Industries) supplementing with 2 mM Glucose, 10 mM Glutamine, 10% Dialyzed FBS, 0.1% β-ME, and indicated levels of lactic acids. YUMM1.7 cancer cell-conditioned medium was collected by incubating YUMM1.7 cells (70-80% density) with control RPMI described above for 18 h. Then, culture medium was collected and centrifuged at 2000 rpm for 15 min to remove debris and cancer cells as cancer cell-conditioned medium. YUMM1.7 cancer cell-conditioned medium collected as described above was treated with Cleanascite™ reagent (Biotech Support Group) prior to Treg culture at a volume ratio of 1:5 according to the manufacturer's instruction.

cleaved caspase-3 in intratumoral Tregs ([1]; Treg^CD36−/− mice (FIG. 4i))	Compound	mitochondrial membrane potential of intratumoral Tregs (MitoTracker Deep Red staining) ([1]; Treg^CD36−/− mice (FIG. 4h))	intratumoral Treg abundance (FoxP3+ Tregs among CD4+ tumor-infiltrating T lymphocytes) ([1]; Treg^CD36−/− mice, 1 mg per kg i.p. every 3 days, two weeks (FIG. 4g))	tumor growth ([1]; Treg^CD36−/− mice, 1 mg per kg i.p. every 3 days, two weeks, vs control vehicle (FIG. 4f))	NAD/NADH ratio [2]	viability of CD36-deficient Tregs exposed to cancer cell-conditioned medium [3]
lower levels	Cc1cc(SCc2sc(-c3ccc(C(F)(F)F)cc3)nc2C)ccc1OCC(=O)O [GW501516]	increased mitochondrial membrane potentials	restored	restored tumor growth	increased NAD/NADH ratios	
	NC(=O)c1ccc[n+]([C@@H]2O[C@H](CO)[C@@H](O)[C@H]2O)c1 [nicotinamide riboside]					partially rescued the viability
